{"source": "patent US20100184815A1", "about": "(priority 2008, published 2010)", "assay_type_in_all_cases": "cell-based", "key": {"Gal-4 hPPARγ": {"biological_target": "T1, Gal-4 hPPARγ (Homo sapiens, UniProt P37231)", "T1 construct": "Plasmids pGal4-hPPARα, pGal4-hPPARγ, pGal4-hPPARδ and pG5-TK-pGL3 were constructed as previously described by Staels, Bart, et al., Nature 1998 Jun; 25", "T1 sequence (P37231 238-505 limits assumed)": "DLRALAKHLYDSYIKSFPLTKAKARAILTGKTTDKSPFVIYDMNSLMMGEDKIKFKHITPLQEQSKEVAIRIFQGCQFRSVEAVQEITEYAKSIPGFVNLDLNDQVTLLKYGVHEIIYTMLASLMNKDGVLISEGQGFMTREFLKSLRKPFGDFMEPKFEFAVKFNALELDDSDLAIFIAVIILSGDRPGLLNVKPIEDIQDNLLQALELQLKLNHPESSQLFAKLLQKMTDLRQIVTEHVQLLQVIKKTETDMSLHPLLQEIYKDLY", "assay": "Gal4-hPPARγ transient transfection reporter assay in Cos cells", "settings": "luciferase reporter, 24 hours with compound, scale 1-5, read-out: Gal-4 hPPAR γ EC50 (scaled number)", "procedure,_shortened": "(§1)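 Cos cells transiently co-transfected with Gal4-hPPAR expression plasmid, pG5-TK-pGL3 luciferase reporter and β-galactosidase control, then treated 24 h with increasing compound concentrations in DMEM containing 0.2% FCS. Luciferase normalised to β-galactosidase; EC50 from curve fit, at least three experiments.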"}, "Gal-4 hPPARβ/δ": {"biological_target": "T2, Gal-4 hPPARβ/δ (Homo sapiens, UniProt Q03181)", "T2 construct": "Plasmids pGal4-hPPARα, pGal4-hPPARγ, pGal4-hPPARδ and pG5-TK-pGL3 were constructed as previously described by Staels, Bart, et al., Nature 1998 Jun; 25", "T2 sequence (Q03181 171-441 limits assumed)": "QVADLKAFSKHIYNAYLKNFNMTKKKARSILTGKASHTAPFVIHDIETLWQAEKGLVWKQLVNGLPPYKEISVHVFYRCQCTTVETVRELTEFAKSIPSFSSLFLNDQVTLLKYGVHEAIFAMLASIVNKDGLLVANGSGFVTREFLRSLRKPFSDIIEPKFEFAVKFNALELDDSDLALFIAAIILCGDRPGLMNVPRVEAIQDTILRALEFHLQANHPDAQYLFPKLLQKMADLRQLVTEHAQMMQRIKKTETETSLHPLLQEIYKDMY", "assay": "Gal4-hPPARδ transient transfection reporter assay in Cos cells", "settings": "luciferase reporter, 24 hours with compound, scale 1-5, read-out: Gal-4 hPPAR β/δ EC50 (scaled number)", "procedure,_shortened": "as §1"}, "Full Length hPPARα": {"biological_target": "T3, Full Length hPPARα (Homo sapiens, UniProt Q07869)", "T3 construct": "Full Length; expressed in transfected cells; host or cells: Cos cells", "T3 sequence (Q07869 1-468)": "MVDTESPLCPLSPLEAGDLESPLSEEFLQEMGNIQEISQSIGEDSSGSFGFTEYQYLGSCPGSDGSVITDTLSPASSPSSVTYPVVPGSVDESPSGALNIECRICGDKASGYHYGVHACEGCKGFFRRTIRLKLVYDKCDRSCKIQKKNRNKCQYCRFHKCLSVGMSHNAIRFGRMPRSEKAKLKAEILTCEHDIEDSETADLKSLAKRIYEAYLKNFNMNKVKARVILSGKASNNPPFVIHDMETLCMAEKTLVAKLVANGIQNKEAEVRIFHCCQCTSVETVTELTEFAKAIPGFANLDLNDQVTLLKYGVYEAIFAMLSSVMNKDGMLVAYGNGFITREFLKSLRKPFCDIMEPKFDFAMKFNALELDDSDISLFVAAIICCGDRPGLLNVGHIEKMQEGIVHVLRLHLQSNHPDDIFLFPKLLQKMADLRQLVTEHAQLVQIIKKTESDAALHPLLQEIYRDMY", "assay": "Full length hPPARα transfection assay", "settings": "full length receptor; read-out: Full Length hPPAR α EC50 (scaled number)", "procedure,_shortened": "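Transiently transfected Cos cells (PEI, 3 h) with receptor expression and luciferase reporter plasmids plus β-galactosidase normalisation control; after replating, cells exposed 24 h to increasing compound concentrations in DMEM/0.2% FCS. Luciferase normalised to β-galactosidase; EC50 estimated from curves, reported as 1–5 score scale; ≥3 experiments.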"}, "Full Length hPPARγ": {"biological_target": "T4, Full Length hPPARγ (Homo sapiens, UniProt P37231)", "T4 construct": "Full Length; expressed in transfected cells; host or cells: Cos cells", "T4 sequence (P37231 1-505)": "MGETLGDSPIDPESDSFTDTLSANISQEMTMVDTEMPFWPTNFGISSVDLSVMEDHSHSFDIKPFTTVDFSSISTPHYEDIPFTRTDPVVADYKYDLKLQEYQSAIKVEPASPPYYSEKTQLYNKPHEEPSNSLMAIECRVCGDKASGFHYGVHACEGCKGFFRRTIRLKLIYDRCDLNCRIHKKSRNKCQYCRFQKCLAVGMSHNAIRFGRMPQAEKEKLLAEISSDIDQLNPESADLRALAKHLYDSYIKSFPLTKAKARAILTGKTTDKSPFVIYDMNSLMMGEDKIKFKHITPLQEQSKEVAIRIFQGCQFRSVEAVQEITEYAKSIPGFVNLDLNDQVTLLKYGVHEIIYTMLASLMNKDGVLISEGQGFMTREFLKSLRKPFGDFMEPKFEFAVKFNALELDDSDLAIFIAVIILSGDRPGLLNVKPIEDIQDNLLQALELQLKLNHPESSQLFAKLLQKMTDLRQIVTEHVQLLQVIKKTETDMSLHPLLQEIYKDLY", "assay": "Full length hPPARγ transfection assay", "settings": "full length receptor; scale 1-5; read-out: Full Length hPPAR γ EC50 (scaled number)", "procedure": "Transient transfection assays. Cos cells were seeded in 60-mm dishes at a density of 5.5×10^5 cells/dish in Dulbecco's modified Eagle's medium (DMEM) supplemented with 10% fetal calf serum (FCS) and incubated at 37° C. for 24 hours before transfection. Cells were transfected in Opti-MEM (Gibco; Invitrogen, Carlsbad, Calif.) without FCS for 3 hours at 37° C., using polyethylenimine, with reporter and expression plasmids. The plasmid pBluescript (Stratagene, La Jolla, Calif.) was used as carrier DNA to set the final amount of DNA to 5.5 μg/dish. The pCMV-b-galactosidase expression plasmid was cotransfected as a control for transfection efficiency. Transfection was stopped by the addition of DMEM supplemented with 10% FCS, and cells were then incubated at 37° C. After 16 hours, cells were trypsinized and seeded in 96-well plates at the density of 2×10^4 cells/well and incubated for 6 hours in 10% FCS-containing DMEM. Cells were then incubated for 24 hours in DMEM containing 0.2% FCS and increasing concentrations of the compound tested or vehicle (DMSO). At the end of the experiment, cells were washed once with ice-cold PBS, lysed and the luciferase and b-galactosidase assays were performed in a luminometer and spectrophotomer. Transfection efficiencies were normalized with the b-galactosidase activity assay. Half-maximal effective concentration (EC50) was estimated using Prism software (GraphPad). All transfection experiments were performed at least three times.\nIn the following tables, proprietary compound EC50 values for hPPAR α, β, δ and γ are shown. The EC50 value is the concentration of a drug that induces a response halfway between the baseline and maximum, and is commonly used as a measure of drug potency. EC50 values are reported on a scale of 1 through 5, wherein the value scale is defined for each receptor as follows: […]"}}}
{"compound": "CCCCCCCCn1c(COC(=O)c2ccc(SC(C)(C)C(=O)O)cc2)nn(Cc2ccc(C)cc2)c1=O", "note": "[Compound 161, 2-methyl-2-(4-(((1-(4-methylbenzyl)-4-octyl-5-oxo-4,5-dihydro-1H-1,2,4-triazol-3-yl)methoxy)carbonyl)phenylthio)propanoic acid]", "values": [{"measurement": "EC50", "setting": "Gal-4 hPPARγ", "value": "51 to 200", "unit": "nM"}, {"measurement": "EC50", "setting": "Gal-4 hPPARβ/δ", "value": "51 to 200", "unit": "nM"}, {"measurement": "EC50", "setting": "Full Length hPPARα", "value": "< 1", "unit": "nM"}, {"measurement": "EC50", "setting": "Full Length hPPARγ", "value": "201 to 999", "unit": "nM"}]}
{"compound": "CCCCCCCCn1c(COC(=O)c2ccc(OC(C)(C)C(=O)O)c(OC)c2)nn(Cc2ccc(C)cc2)c1=O", "note": "[Compound 186, 2-(2-methoxy-4-(((1-(4-methylbenzyl)-4-octyl-5-oxo-4,5-dihydro-1H-1,2,4-triazol-3-yl)methoxy)carbonyl)phenoxy)-2-methylpropanoic acid]", "values": [{"measurement": "EC50", "setting": "Gal-4 hPPARγ", "value": "51 to 200", "unit": "nM"}, {"measurement": "EC50", "setting": "Gal-4 hPPARβ/δ", "value": "> 1000", "unit": "nM"}, {"measurement": "EC50", "setting": "Full Length hPPARα", "value": "51 to 200", "unit": "nM"}, {"measurement": "EC50", "setting": "Full Length hPPARγ", "value": "51 to 200", "unit": "nM"}]}
{"compound": "CCCCCCn1c(COC(=O)c2ccc(SC(C)(C)C(=O)O)cc2)nn(Cc2ccc(C(C)(C)C)cc2)c1=O", "note": "[Compound 187, 2-(4-(((1-(4-tert-butylbenzyl)-4-hexyl-5-oxo-4,5-dihydro-1H-1,2,4-triazol-3-yl)methoxy)carbonyl)phenylthio)-2-methylpropanoic acid]", "values": [{"measurement": "EC50", "setting": "Gal-4 hPPARγ", "value": "51 to 200", "unit": "nM"}, {"measurement": "EC50", "setting": "Gal-4 hPPARβ/δ", "value": "> 1000", "unit": "nM"}, {"measurement": "EC50", "setting": "Full Length hPPARα", "value": "< 1", "unit": "nM"}, {"measurement": "EC50", "setting": "Full Length hPPARγ", "value": "51 to 200", "unit": "nM"}]}
{"compound": "CCCCCCCn1c(COC(=O)c2ccc(SC(C)(C)C(=O)O)cc2)nn(Cc2ccc(C(C)(C)C)cc2)c1=O", "note": "[Compound 189, 2-(4-(((1-(4-tert-butylbenzyl)-4-heptyl-5-oxo-4,5-dihydro-1H-1,2,4-triazol-3-yl)methoxy)carbonyl)phenylthio)-2-methylpropanoic acid]", "values": [{"measurement": "EC50", "setting": "Gal-4 hPPARγ", "value": "1 to 50", "unit": "nM"}, {"measurement": "EC50", "setting": "Gal-4 hPPARβ/δ", "value": "> 1000", "unit": "nM"}, {"measurement": "EC50", "setting": "Full Length hPPARα", "value": "< 1", "unit": "nM"}, {"measurement": "EC50", "setting": "Full Length hPPARγ", "value": "51 to 200", "unit": "nM"}]}
{"compound": "CCCCCCCn1c(COC(=O)c2ccc(SC(C)(C)C(=O)O)cc2)nn(Cc2ccc(C)cc2)c1=O", "note": "[Compound 191, 2-(4-(((4-heptyl-1-(4-methylbenzyl)-5-oxo-4,5-dihydro-1H-1,2,4-triazol-3-yl)methoxy)carbonyl)phenylthio)-2-methylpropanoic acid]", "values": [{"measurement": "EC50", "setting": "Gal-4 hPPARγ", "value": "51 to 200", "unit": "nM"}, {"measurement": "EC50", "setting": "Gal-4 hPPARβ/δ", "value": "> 1000", "unit": "nM"}, {"measurement": "EC50", "setting": "Full Length hPPARα", "value": "< 1", "unit": "nM"}, {"measurement": "EC50", "setting": "Full Length hPPARγ", "value": "51 to 200", "unit": "nM"}]}
